# Assay results from publication PMC10892818, “An Antiherpesviral Host-Directed Strategy Based on CDK7 Covalently Binding Drugs: Target-Selective, Picomolar-Dose, Cross-Virus Reactivity” (Pharmaceutics, 2024).
# Read-outs that look alike come from different tables or passages of the source.
# Key:
# HCMV UL97-T409M [1] = assay: HCMV reporter-based antiviral assay, drug-resistant mutant; type: cell-based, human cytomegalovirus; details: Human betaherpesvirus 5, read-out: Measured EC50 ref. drugs UL97-T409M
# Experimental: (§1) For the infection experiments, stocks of the following recombinant, reporter protein-expressing viruses (GFP or YFP (i.e., green or yellow fluorescent protein, respectively)) were propagated (in permissive cells), determined in their infectious titers performing the respective reporter assays, stored by aliquots at −80 °C, and used for the assessment of antiviral drug activities: human cytomegalovirus HCMV AD169-GFP (HFFs); murine cytomegalovirus MCMV C3X-GFP (MEFs); guinea pig cytomegalovirus GPCMV v403-GFP (GPEFs); human herpesvirus type 6A HHV-6A U1102-GFP (J-Jhan); herpes simplex virus type 1 HSV-1 166v VP22-GFP (HFFs); varicella zoster virus VZV Oka-GFP (HFFs); Epstein-Barr virus EBV Akata-GFP (Akata-BX1-GFP carrier cells; kindly provided by Lindsey Hutt-Fletcher and Rona Scott, Dept. Microbiol. Immunol., LSUHSC Univ., Shreveport, LA, USA); and Kaposi’s sarcoma-associated herpesvirus KSHV rKSHV.219-GFP/RFP (in iSLK.219 carrier cells).
# (§2) For HCMV AD169-GFP infection, the replication assay was based on a seeding of 225,000 HFFs or 13,500 HFFs in 12 well or 96 well plates, respectively, which were then inoculated with HCMV AD169-GFP [55] at an MOI of 0.25 GFP-FU/mL/7 d for a 90 min period of inoculum–cell adsorption, followed by a medium refreshment including the immediate addition of antiviral compounds. At 7 d p.i., the infected HFFs were either directly fixed with 10% formalin for 20 min at 4 °C (when used for infection in the 96 well format) or lysed and transferred to 96 well plates (when used for infection in the 12 well format) so that the reporter of viral replication could be quantified by GFP fluorometry using a Perkin Elmer Victor X4 Multimode Plate Reader (Perkin Elmer, Waltham, MA, USA).
# (§3) Due to the fact that the HCMV-encoded protein kinase pUL97 represents a functional and structural ortholog of the host CDKs (vCDK/pUL97), the viral mutants of ORF-UL97 were assessed for sensitivity against CDK7 inhibitors.
# HCMV UL97-C603W [2] = assay: as above; type: cell-based, human cytomegalovirus; details: Human betaherpesvirus 5, read-out: Measured EC50 ref. drugs UL97-C603W
# Experimental: as §1, §2, §3
# HCMV UL97-H411Y [3] = assay: as above; type: cell-based, human cytomegalovirus; details: Human betaherpesvirus 5, read-out: Measured EC50 ref. drugs UL97-H411Y
# Experimental: as §1, §2, §3
# HCMV UL97-L397R = assay: as above; type: cell-based, human cytomegalovirus; details: Human betaherpesvirus 5, read-out: Measured EC50 ref. drugs UL97-L397R
# Experimental: as §1, §2, §3
# HCMV UL97-C480F [4] = assay: as above; type: cell-based, human cytomegalovirus; details: Human betaherpesvirus 5, read-out: Measured EC50 ref. drugs UL97-C480F
# Experimental: as §1, §2, §3
# HCMV UL97-M460I [5] = assay: as above; type: cell-based, human cytomegalovirus; details: Human betaherpesvirus 5, AD169, read-out: Measured EC50 ref. drugs UL97-M460I
# Experimental: as §1, §2, §3
# HCMV UL97-C592G [6] = assay: as above; type: cell-based, human cytomegalovirus; details: Human betaherpesvirus 5, read-out: Measured EC50 ref. drugs UL97-C592G
# Experimental: as §1, §2, §3
# HCMV UL97-H469V = assay: as above; type: cell-based, human cytomegalovirus; details: Human betaherpesvirus 5, read-out: Measured EC50 ref. drugs UL97-H469V
# Experimental: as §1, §2, §3
# HCMV UL97-H520Q [7] = assay: as above; type: cell-based, human cytomegalovirus; details: Human betaherpesvirus 5, read-out: Measured EC50 ref. drugs UL97-H520Q
# Experimental: as §1, §2, §3
# HCMV UL97-F342S [8] = assay: as above; type: cell-based, human cytomegalovirus; details: Human betaherpesvirus 5, read-out: Measured EC50 ref. drugs UL97-F342S
# Experimental: as §1, §2, §3
# HCMV UL97-H411Y [9] = tested on: HCMV UL97-H411Y; design: method as in PMID 31940472; key: R-high, high-level drug resistance; R-int, intermediate-level drug resistance; R-low, low-level drug resistance; S, drug sensitivity; details: cited from earlier work
# HCMV UL97-H520Q [10] = tested on: HCMV UL97-H520Q; design: method as in PMID 31940472; key: R-high, high-level drug resistance; R-int, intermediate-level drug resistance; R-low, low-level drug resistance; S, drug sensitivity; details: cited from earlier work
# HCMV UL97-M460I [11] = tested on: HCMV UL97-M460I; design: method as in PMID 31940472; key: R-high, high-level drug resistance; R-int, intermediate-level drug resistance; R-low, low-level drug resistance; S, drug sensitivity; details: cited from earlier work
# HCMV UL97-C603W [12] = tested on: HCMV UL97-C603W; design: method as in PMID 31940472; key: R-high, high-level drug resistance; R-int, intermediate-level drug resistance; R-low, low-level drug resistance; S, drug sensitivity; details: cited from earlier work
# HCMV UL97-F342S [13] = tested on: HCMV UL97-F342S; design: method as in PMID 31940472; key: R-high, high-level drug resistance; R-int, intermediate-level drug resistance; R-low, low-level drug resistance; S, drug sensitivity; details: (for F342Y); cited from earlier work
# HCMV UL97-C480F [14] = tested on: HCMV UL97-C480F; design: method as in PMID 31940472; key: R-high, high-level drug resistance; R-int, intermediate-level drug resistance; R-low, low-level drug resistance; S, drug sensitivity; details: cited from earlier work
# HCMV UL97-C592G [15] = tested on: HCMV UL97-C592G; design: method as in PMID 31940472; key: R-high, high-level drug resistance; R-int, intermediate-level drug resistance; R-low, low-level drug resistance; S, drug sensitivity; details: cited from earlier work
# HCMV UL97-T409M [16] = tested on: HCMV UL97-T409M; design: method as in PMID 31940472; key: R-high, high-level drug resistance; R-int, intermediate-level drug resistance; R-low, low-level drug resistance; S, drug sensitivity; details: cited from earlier work
# [17] = Neutral Red uptake assay (NRA), uninfected HFFs; type: cell-based; details: human, read-out: CC50 (VZV-GFP system)
# Experimental: The cytotoxic level of the compounds was determined by the use of an established quantitation of cell viability (i.e., Neutral Red uptake assay) performed after 3–7 d of compound incubation on uninfected cells (according to the respective duration of the antiviral reporter-based replication assay performed in parallel) as described earlier in [44].
# [18] = Neutral Red uptake assay (NRA), iSLK.219 cells; type: cell-based; details: human, read-out: CC50 (KSHV-GFP/RFP system)
# Experimental: (§4) The virus recombinants VZV Oka-GFP and rKSHV.219-GFP/RFP were used for the infection of HFFs (VZV) or were continuously passaged in iSLK.219 carrier cells (KSHV), respectively, and cell viability was determined by NRA performed with uninfected HFFs or uninduced iSLK.219 cells, respectively. (A,B) Schematic depiction of the assay systems performed in a 96 well plate format. […] For the VZV-GFP system, virus stock VZV Oka-GFP was applied as a cell-bound infectious inoculum. After a 90 min period of inoculum adsorption to the cell surfaces, antiviral compounds were added to the culture media at serial dilutions (DMSO served as a solvent control for drug treatment of infected cells, while mock-infected cells served as a negative control). For the KSHV-GFP/RFP system, iSLK.219 cell lytic replication of KSHV (RFP reporter signal) was induced by the addition of 0.05 or 0.5 µg/mL doxycycline (dox) to the culture media. Cultivated dox-induced iSLK.219 cells were treated with antiviral compounds added at serial dilutions (DMSO served as a positive infection solvent control, while dox-untreated mock cells served as a negative control). HFFs or iSLK.219 cells were harvested at 4 d p.i. or 1 d after treatment, respectively, fixed by a 10 min incubation with 10% formalin, washed with PBS, and used for quantitation of the GFP or RFP reporter signal by PicoMD counting (ImageXpress® Pico device, Molecular Devices LLC, San Jose, CA, USA), with data evaluation using CellReporterXpress® software (version 2.9.3.1183, Molecular Devices LLC) as described earlier in [63]. (C) The antiviral activity of the reference drugs was determined with the VZV-GFP system in the 96 well format. EC50 values refer to measurements in quadruplicate, and the mean values ± SD of two experimental replicates are given. (D) The antiviral activity of the reference drugs was determined with the KSHV-GFP/RFP system in the 96 well format. EC50 values refer to measurements in triplicate, and the mean values ± SD are given for each of the two depicted experimental replicates.
# rKSHV.219-GFP/RFP = assay: KSHV-GFP/RFP reporter assay in iSLK.219 cells; type: cell-based, Kaposi’s sarcoma-associated herpesvirus
# Text: (§5) The virus recombinants VZV Oka-GFP and rKSHV.219-GFP/RFP were used for the infection of HFFs (virus stock VZV Oka-GFP applied as a cell-bound inoculum as described before) or were continuously passaged in iSLK.219 carrier cells, respectively (Figure 1). The conditions of the GFP/RFP-based assays were adapted to both the 96 well (Figure 1A,B) and 12 well formats, and details including the assessment of antiviral reference drugs are given (Figure 1C,D).
# as §4
# VZV Oka-GFP = assay: microbe, parasite or virus in culture; type: cell-based, varicella zoster virus; details: for EC50: Human alphaherpesvirus 3, 96 h
# Text: as §5, §4
structure (smiles),measurement,setting,value
"CC(C)Nc1nc2cc(Cl)c(Cl)cc2n1[C@H]1O[C@@H](CO)[C@H](O)[C@@H]1O [MBV, maribavir]",EC50,HCMV UL97-T409M [1],> 30000 nM
same,EC50,HCMV UL97-C603W [2],1530 nM
same,EC50,HCMV UL97-H411Y [3],21000 nM
same,EC50,HCMV UL97-L397R,63900 nM
same,EC50,HCMV UL97-C480F [4],> 30000 nM
same,EC50,HCMV UL97-M460I [5],10 nM
same,EC50,HCMV UL97-C592G [6],770 nM
same,EC50,HCMV UL97-H469V,620 nM
same,EC50,HCMV UL97-H520Q [7],40 nM
same,EC50,HCMV UL97-F342S [8],20300 nM
same,Reported phenotype UL97-H411Y,HCMV UL97-H411Y [9],R-high
same,Reported phenotype UL97-H520Q,HCMV UL97-H520Q [10],S
same,Reported phenotype UL97-M460I,HCMV UL97-M460I [11],R-low
same,Reported phenotype UL97-C603W,HCMV UL97-C603W [12],R-int
same,Reported phenotype UL97-F342S,HCMV UL97-F342S [13],R-int
same,Reported phenotype UL97-C480F,HCMV UL97-C480F [14],R-high
same,Reported phenotype UL97-C592G,HCMV UL97-C592G [15],S
same,Reported phenotype UL97-T409M,HCMV UL97-T409M [16],R-high
Nc1nc2c(ncn2COCCO)c(=O)[nH]1 [aciclovir],CC50,[17],> 100000 nM
CCCCCCCCCCCCCCCCOCCCOP(=O)(O)CO[C@H](CO)Cn1ccc(N)nc1=O [brincidofovir],CC50,[17],> 10000 nM
same,CC50,[18]; marked 0.05 μg/mL dox,23800 ± 2900 nM
same,CC50,[18]; marked 0.5 μg/mL dox,28200 nM
same,SI (KSHV-GFP/RFP system),rKSHV.219-GFP/RFP; 0.05 μg/mL dox,126
same,SI (KSHV-GFP/RFP system),rKSHV.219-GFP/RFP; 0.5 μg/mL dox,43
same,EC50,"rKSHV.219-GFP/RFP; Human gammaherpesvirus 8, read-out: KSHV EC50, iSLK.219, 96 well, induced with 0.5 μg/mL dox",700 nM
same,SI (VZV-GFP system),VZV Oka-GFP; 96 well format,> 143
same,EC50,VZV Oka-GFP; read-out: VZV EC50 (first experimental replicate),70 ± 40 nM
same,EC50,VZV Oka-GFP; read-out: VZV EC50 (second experimental replicate),60 ± 30 nM
